PMC10009787 (ACS Medicinal Chemistry Letters, 2023)
Values joined by “and” are separate entries in the source; they are usually repeats but may differ in a detail not shown here. Equal entries are not always repeated. Where two headings read alike, the source gives them in different places.

Key:
ABL1 = ABL1 (Homo sapiens, UniProt P00519); assay: SelectScreen kinase profiling; assay type: biochemical; conditions: average of duplicate
CSK = CSK (Homo sapiens, UniProt P41240); assay: SelectScreen kinase profiling; assay type: biochemical; conditions: average of duplicate
CSNK1E (CK1 epsilon) = CSNK1E (CK1 epsilon) (Homo sapiens, UniProt P49674); assay: SelectScreen kinase profiling; assay type: biochemical; conditions: average of duplicate
EGFR (ErbB1) L858R = EGFR (ErbB1) L858R (Homo sapiens, UniProt P00533, L858R); assay: SelectScreen kinase profiling; assay type: biochemical; conditions: average of duplicate
EGFR (ErbB1) T790M L858R = EGFR (ErbB1) T790M L858R (Homo sapiens, UniProt P00533, L858R/T790M); assay: SelectScreen kinase profiling; assay type: biochemical; conditions: average of duplicate
EGFR (ErbB1) T790M = EGFR (ErbB1) T790M (Homo sapiens, UniProt P00533, T790M); assay: SelectScreen kinase profiling; assay type: biochemical; conditions: average of duplicate
Sequence of EGFR (ErbB1) T790M (P00533 25-1210 T790M): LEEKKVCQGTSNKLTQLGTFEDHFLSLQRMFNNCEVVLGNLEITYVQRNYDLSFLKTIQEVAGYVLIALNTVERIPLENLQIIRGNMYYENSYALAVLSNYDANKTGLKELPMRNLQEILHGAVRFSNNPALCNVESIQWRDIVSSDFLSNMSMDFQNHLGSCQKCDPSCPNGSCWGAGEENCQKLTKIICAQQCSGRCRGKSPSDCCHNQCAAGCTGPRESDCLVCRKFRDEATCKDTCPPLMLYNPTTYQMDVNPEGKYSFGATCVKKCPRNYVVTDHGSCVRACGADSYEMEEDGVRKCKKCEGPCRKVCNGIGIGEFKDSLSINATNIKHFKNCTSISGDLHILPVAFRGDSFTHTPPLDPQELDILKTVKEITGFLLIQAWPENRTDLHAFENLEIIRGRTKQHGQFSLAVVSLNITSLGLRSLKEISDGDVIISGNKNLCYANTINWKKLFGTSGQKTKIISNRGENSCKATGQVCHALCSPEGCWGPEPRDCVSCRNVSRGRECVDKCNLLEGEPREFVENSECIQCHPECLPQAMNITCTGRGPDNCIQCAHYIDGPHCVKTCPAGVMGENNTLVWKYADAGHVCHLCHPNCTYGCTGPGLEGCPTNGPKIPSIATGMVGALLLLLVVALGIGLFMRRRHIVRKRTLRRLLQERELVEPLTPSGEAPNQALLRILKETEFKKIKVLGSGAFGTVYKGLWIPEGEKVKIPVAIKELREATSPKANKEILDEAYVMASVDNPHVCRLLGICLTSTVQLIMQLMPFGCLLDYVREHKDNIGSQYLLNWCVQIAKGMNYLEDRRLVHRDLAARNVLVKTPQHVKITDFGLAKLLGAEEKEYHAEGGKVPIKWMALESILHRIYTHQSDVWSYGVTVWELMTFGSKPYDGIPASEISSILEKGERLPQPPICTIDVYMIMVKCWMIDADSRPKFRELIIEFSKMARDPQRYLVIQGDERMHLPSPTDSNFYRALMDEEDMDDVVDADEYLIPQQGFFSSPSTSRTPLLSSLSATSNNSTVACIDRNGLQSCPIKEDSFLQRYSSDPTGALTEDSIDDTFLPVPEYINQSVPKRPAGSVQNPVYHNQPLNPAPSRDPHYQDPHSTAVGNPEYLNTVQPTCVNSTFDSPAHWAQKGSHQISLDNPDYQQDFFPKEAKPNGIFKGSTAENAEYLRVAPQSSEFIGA

ERBB4 (HER4) = ERBB4 (HER4) (Homo sapiens, UniProt Q15303); assay: SelectScreen kinase profiling; assay type: biochemical; conditions: average of duplicate
FGFR2 = FGFR2 (Homo sapiens, UniProt P21802); assay: SelectScreen kinase profiling; assay type: biochemical; conditions: average of duplicate
FGFR3 = FGFR3 (Homo sapiens, UniProt P22607); assay: SelectScreen kinase profiling; assay type: biochemical; conditions: average of duplicate
Sequence of FGFR3 (P22607 23-806): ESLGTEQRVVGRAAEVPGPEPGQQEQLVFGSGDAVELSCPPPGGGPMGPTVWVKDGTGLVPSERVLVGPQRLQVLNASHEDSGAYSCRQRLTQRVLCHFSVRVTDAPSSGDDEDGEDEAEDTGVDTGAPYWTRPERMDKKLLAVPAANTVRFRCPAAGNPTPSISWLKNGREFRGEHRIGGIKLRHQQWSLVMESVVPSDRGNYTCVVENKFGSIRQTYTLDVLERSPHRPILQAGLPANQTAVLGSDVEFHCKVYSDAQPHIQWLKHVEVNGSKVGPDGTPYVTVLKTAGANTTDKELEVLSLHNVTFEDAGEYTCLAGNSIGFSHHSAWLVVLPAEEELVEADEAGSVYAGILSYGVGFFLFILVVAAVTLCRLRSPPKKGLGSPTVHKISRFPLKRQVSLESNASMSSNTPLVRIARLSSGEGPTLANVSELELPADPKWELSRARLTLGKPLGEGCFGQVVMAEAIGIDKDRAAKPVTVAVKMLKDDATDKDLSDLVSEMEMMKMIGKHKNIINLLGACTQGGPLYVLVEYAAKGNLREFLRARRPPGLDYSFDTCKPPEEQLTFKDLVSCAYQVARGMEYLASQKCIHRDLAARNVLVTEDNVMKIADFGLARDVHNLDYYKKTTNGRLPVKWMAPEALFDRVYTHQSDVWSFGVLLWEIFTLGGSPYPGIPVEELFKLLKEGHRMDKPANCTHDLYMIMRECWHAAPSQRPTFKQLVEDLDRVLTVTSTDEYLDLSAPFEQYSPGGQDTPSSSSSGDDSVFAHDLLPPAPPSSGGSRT

FGR = FGR (Homo sapiens, UniProt P09769); assay: SelectScreen kinase profiling; assay type: biochemical; conditions: average of duplicate
FLT4 (VEGFR3) = FLT4 (VEGFR3) (Homo sapiens, UniProt P35916); assay: SelectScreen kinase profiling; assay type: biochemical; conditions: average of duplicate
Sequence of FLT4 (VEGFR3) (P35916 25-1363): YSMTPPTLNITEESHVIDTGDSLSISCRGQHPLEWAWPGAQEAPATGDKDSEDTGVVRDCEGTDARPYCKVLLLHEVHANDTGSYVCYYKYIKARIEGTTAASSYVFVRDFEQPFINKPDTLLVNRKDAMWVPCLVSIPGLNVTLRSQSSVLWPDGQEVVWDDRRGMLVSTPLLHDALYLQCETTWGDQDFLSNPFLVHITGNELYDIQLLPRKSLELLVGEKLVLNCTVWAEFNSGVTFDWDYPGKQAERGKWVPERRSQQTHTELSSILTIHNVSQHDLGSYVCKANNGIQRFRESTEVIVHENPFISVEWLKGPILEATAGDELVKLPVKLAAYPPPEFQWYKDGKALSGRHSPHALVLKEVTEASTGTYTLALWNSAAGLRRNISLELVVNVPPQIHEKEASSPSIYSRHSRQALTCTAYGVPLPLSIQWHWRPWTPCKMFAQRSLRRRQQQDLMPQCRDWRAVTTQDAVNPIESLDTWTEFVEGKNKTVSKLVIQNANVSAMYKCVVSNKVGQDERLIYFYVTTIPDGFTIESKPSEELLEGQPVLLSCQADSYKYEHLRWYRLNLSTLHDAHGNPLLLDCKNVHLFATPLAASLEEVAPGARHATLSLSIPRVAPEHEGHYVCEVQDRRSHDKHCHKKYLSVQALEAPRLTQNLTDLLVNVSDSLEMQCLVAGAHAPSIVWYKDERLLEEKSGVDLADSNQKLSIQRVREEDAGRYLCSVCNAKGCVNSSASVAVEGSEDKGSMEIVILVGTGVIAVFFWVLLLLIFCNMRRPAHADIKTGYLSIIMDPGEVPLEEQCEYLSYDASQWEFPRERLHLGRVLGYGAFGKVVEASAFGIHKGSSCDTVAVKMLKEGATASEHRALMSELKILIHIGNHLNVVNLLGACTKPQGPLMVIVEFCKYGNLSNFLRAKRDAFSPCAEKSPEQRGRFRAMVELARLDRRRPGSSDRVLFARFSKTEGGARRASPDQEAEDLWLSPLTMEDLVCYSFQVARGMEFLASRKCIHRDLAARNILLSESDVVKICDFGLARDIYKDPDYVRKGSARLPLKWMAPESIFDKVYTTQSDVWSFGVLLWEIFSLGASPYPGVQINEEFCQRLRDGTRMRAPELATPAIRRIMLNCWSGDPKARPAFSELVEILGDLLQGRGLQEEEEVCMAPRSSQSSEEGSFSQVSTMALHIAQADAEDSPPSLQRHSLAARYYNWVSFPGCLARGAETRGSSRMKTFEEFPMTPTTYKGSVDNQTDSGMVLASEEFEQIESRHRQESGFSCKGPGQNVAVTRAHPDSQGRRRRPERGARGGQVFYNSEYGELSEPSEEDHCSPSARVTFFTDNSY

KDR (VEGFR2) = KDR (VEGFR2) (Homo sapiens, UniProt P35968); assay: SelectScreen kinase profiling; assay type: biochemical; conditions: average of duplicate
LCK = LCK (Homo sapiens, UniProt P06239); assay: SelectScreen kinase profiling; assay type: biochemical; conditions: average of duplicate
RET = RET (Homo sapiens, UniProt P07949); assay: SelectScreen kinase profiling; assay type: biochemical; conditions: average of duplicate
EGFR (ErbB1) d746-750 = EGFR (ErbB1) d746-750 (Homo sapiens, UniProt P00533, DEL746-750); assay: SelectScreen kinase profiling; assay type: biochemical; conditions: average of duplicate
MAP2K2 (MEK2) = MAP2K2 (MEK2) (Homo sapiens, UniProt P36507); assay: SelectScreen kinase profiling; assay type: biochemical; conditions: average of duplicate
Sequence of MAP2K2 (MEK2) (P36507 whole entry): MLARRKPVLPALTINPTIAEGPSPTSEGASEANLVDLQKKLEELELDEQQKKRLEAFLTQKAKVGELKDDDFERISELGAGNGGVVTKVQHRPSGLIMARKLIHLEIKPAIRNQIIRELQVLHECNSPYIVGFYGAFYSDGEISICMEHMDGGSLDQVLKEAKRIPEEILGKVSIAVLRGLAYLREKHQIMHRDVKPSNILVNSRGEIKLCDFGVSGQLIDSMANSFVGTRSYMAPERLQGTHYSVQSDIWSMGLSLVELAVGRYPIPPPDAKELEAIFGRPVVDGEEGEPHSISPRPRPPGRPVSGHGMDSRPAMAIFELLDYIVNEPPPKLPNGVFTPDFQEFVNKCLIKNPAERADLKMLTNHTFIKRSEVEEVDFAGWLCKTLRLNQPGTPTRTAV

TNK2 (ACK) = TNK2 (ACK) (Homo sapiens, UniProt Q07912); assay: SelectScreen kinase profiling; assay type: biochemical; conditions: average of duplicate
BLK = BLK (Homo sapiens, UniProt P51451); assay: SelectScreen kinase profiling / Z′-Lyte kinase assay
Sequence of BLK (P51451 whole entry): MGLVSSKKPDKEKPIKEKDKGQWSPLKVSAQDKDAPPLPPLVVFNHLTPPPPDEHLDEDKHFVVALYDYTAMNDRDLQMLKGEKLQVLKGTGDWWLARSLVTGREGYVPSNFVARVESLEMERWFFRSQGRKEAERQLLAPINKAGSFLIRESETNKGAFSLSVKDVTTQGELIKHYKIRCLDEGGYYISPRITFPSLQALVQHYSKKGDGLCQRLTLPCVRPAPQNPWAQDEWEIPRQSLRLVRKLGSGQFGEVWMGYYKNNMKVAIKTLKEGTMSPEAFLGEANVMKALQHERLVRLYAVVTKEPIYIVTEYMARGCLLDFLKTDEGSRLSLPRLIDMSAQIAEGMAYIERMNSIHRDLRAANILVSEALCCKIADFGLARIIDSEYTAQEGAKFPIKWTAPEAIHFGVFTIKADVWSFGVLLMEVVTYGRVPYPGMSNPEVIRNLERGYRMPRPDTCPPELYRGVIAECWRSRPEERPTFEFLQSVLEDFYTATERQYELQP

BMX = biological target: T1, BMX (Homo sapiens, UniProt P51813); assay: as above
T1 sequence (P51813 1-675): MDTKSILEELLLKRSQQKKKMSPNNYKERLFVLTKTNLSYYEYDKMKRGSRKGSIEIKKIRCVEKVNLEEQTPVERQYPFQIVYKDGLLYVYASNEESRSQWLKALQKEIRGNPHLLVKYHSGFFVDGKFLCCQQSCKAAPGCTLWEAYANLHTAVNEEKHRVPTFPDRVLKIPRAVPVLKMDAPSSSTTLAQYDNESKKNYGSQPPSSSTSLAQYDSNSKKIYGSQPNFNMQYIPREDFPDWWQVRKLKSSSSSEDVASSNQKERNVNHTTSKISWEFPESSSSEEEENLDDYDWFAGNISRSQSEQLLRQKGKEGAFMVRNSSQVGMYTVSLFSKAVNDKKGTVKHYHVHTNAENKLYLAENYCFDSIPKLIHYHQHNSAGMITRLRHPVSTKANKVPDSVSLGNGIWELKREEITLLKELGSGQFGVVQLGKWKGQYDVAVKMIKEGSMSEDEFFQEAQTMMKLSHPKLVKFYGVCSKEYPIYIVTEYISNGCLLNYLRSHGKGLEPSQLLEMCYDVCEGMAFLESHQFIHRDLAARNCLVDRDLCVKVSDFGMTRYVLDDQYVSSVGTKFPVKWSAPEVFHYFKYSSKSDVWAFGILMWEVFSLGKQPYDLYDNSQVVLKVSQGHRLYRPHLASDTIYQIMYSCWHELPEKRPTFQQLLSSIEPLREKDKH

BTK = BTK (Homo sapiens, UniProt Q06187); assay: AssayQuant kinact/Ki profiling, PhosphoSens CSox-based kinetic assay; assay type: biochemical; set-up: purchased ThermoFisher / Life Technologies SelectScreen PV3363; conditions: 0.6 nM enzyme, 1000 µM ATP, one step fit
Sequence of BTK (Q06187 whole entry): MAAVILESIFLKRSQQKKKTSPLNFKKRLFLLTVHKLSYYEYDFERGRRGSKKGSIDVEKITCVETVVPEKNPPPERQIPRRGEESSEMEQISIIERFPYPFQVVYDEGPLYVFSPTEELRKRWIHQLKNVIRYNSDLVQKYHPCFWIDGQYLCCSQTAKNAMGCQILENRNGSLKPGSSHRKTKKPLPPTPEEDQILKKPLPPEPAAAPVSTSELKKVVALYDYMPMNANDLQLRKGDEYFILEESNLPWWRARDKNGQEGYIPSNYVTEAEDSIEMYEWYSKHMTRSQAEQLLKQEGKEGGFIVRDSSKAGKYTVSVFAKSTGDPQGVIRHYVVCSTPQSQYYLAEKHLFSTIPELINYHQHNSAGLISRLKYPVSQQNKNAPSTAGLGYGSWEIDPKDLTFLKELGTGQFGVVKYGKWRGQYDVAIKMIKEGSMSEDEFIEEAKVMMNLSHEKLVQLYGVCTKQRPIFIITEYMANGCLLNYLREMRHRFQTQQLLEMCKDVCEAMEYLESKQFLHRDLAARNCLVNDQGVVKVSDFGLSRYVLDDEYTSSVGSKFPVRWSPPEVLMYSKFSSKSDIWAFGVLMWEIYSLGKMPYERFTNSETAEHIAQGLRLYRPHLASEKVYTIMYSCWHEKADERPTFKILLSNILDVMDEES

`C=CC(=O)N1CCCC(n2nc(-c3c(C)cc(Oc4ccccc4)cc3C)c3c(N)ncnc32)C1` (stereo in doubt) [Compound 3] showed an inhibition at 1 µM (ABL1) of 0%, an inhibition at 1 µM (CSK) of 15% and an inhibition at 1 µM (CSNK1E (CK1 epsilon)) of 9%. The inhibition at 1 µM (EGFR (ErbB1) L858R) was 2%, the inhibition at 1 µM (EGFR (ErbB1) T790M L858R) was 6% and the inhibition at 1 µM (EGFR (ErbB1) T790M) was 6%. It also gave an inhibition at 1 µM (ERBB4 (HER4)) of 93%, an inhibition at 1 µM (FGFR2) of 8% and an inhibition at 1 µM (FGFR3) of 3%. The inhibition at 1 µM (FGR) was 53%, the inhibition at 1 µM (FLT4 (VEGFR3)) was 5% and the inhibition at 1 µM (KDR (VEGFR2)) was 5%. The inhibition at 1 µM (LCK) was 74%, the inhibition at 1 µM (RET) was 5% and the inhibition at 1 µM (EGFR (ErbB1) d746-750) was 23%. It also gave an inhibition at 1 µM (MAP2K2 (MEK2)) of 2%, an inhibition at 1 µM (TNK2 (ACK)) of 4% and an inhibition at 1 µM (BLK) of 100%. For the same compound, the IC50 (BLK; BLK IC50, Z′-Lyte, [ATP] Km app, 1 h incubation, duplicate) was 35.6 nM, the Hillslope (BLK; BLK IC50 curve) was 1.08 and the “BLK, BTK/Kinase” value (BLK; BTK selectivity from IC50 values) was 2.8 x. For the same compound, the inhibition at 0.000495 µM (BLK; read-out: % Inhibition Point 1) was -5%, the inhibition at 0.00152 µM (BLK; read-out: % Inhibition Point 1) was 5% and the inhibition at 0.00457 µM (BLK; read-out: % Inhibition Point 1) was 13%. For the same compound, the inhibition at 0.0137 µM (BLK; read-out: % Inhibition Point 1) was 30%, the inhibition at 0.0412 µM (BLK; read-out: % Inhibition Point 1) was 56% and the inhibition at 0.123 µM (BLK; read-out: % Inhibition Point 1) was 77%. It also gave an inhibition at 0.37 µM (BLK; read-out: % Inhibition Point 1) of 98%, an inhibition at 1.11 µM (BLK; read-out: % Inhibition Point 1) of 101% and an inhibition at 3.33 µM (BLK; read-out: % Inhibition Point 1) of 101%. For the same compound, the inhibition at 10 µM (BLK; read-out: % Inhibition Point 1) was 101%, the inhibition at 0.000495 µM (BLK; read-out: % Inhibition Point 2) was 8% and the inhibition at 0.00152 µM (BLK; read-out: % Inhibition Point 2) was -3%. For the same compound, the inhibition at 0.00457 µM (BLK; read-out: % Inhibition Point 2) was 7%, the inhibition at 0.0137 µM (BLK; read-out: % Inhibition Point 2) was 24% and the inhibition at 0.0412 µM (BLK; read-out: % Inhibition Point 2) was 55%. The inhibition at 0.123 µM (BLK; read-out: % Inhibition Point 2) was 82%, the inhibition at 0.37 µM (BLK; read-out: % Inhibition Point 2) was 96% and the inhibition at 1.11 µM (BLK; read-out: % Inhibition Point 2) was 101%. For the same compound, the inhibition at 3.33 µM (BLK; read-out: % Inhibition Point 2) was 102%, the inhibition at 10 µM (BLK; read-out: % Inhibition Point 2) was 101% and the inhibition at 1 µM (BMX) was 94%. For the same compound, the IC50 (BMX; BMX IC50, Z′-Lyte, [ATP] Km app, 1 h incubation, duplicate) was 5.7 nM and 5.67 nM, the Hillslope (BMX; BMX IC50 curve) was 1.56 and the inhibition at 0.000495 µM (BMX; read-out: % Inhibition Point 1) was 6%. For the same compound, the inhibition at 0.00152 µM (BMX; read-out: % Inhibition Point 1) was 16%, the inhibition at 0.00457 µM (BMX; read-out: % Inhibition Point 1) was 48% and the inhibition at 0.0137 µM (BMX; read-out: % Inhibition Point 1) was 78%. It also gave an inhibition at 0.0412 µM (BMX; read-out: % Inhibition Point 1) of 94%, an inhibition at 0.123 µM (BMX; read-out: % Inhibition Point 1) of 102% and an inhibition at 0.37 µM (BMX; read-out: % Inhibition Point 1) of 101%. For the same compound, the inhibition at 1.11 µM (BMX; read-out: % Inhibition Point 1) was 98%, the inhibition at 3.33 µM (BMX; read-out: % Inhibition Point 1) was 99% and the inhibition at 10 µM (BMX; read-out: % Inhibition Point 1) was 98%. It also gave an inhibition at 0.000495 µM (BMX; read-out: % Inhibition Point 2) of 10%, an inhibition at 0.00152 µM (BMX; read-out: % Inhibition Point 2) of 18% and an inhibition at 0.00457 µM (BMX; read-out: % Inhibition Point 2) of 42%. The inhibition at 0.0137 µM (BMX; read-out: % Inhibition Point 2) was 83%, the inhibition at 0.0412 µM (BMX; read-out: % Inhibition Point 2) was 101% and the inhibition at 0.123 µM (BMX; read-out: % Inhibition Point 2) was 97%. It also gave an inhibition at 0.37 µM (BMX; read-out: % Inhibition Point 2) of 98%, an inhibition at 1.11 µM (BMX; read-out: % Inhibition Point 2) of 102% and an inhibition at 3.33 µM (BMX; read-out: % Inhibition Point 2) of 100%. The inhibition at 10 µM (BMX; read-out: % Inhibition Point 2) was 102%, the kinact/KI (BTK) was 31000 M⁻¹ s⁻¹ and the “BTK kinact/Ki” value (BTK; listed as Dimethyl Analog) was 31,600 M^-1S^-1.
